By efflux ratio is commonly meant a quotient of directional permeabilities that is used to spot active efflux. Broadly, the fraction unbound is the share of the substance not bound to proteins or other matrix.

Like-named read-outs stand apart in the source and are kept apart here.

Data set [1] is described as follows: Transport of supinoxin in Caco-2 cells (bidirectional permeability). The following applies: human. Type of data set: in vitro ADME. As for the experimental part:
The Caco-2 intestinal epithelial cell line (ATCC® HTB-37™) purchased from American Type Culture Collection (ATCC, Manassas, VA, USA) was cultured and maintained in Dulbecco’s modified Eagle medium (DMEM) containing 10% fetal bovine serum, 100 U/mL penicillin, and 0.1 mg/mL streptomycin under humidified atmosphere of air containing 5% CO2 at 37 °C. Caco-2 cells were seeded at a density of 6 × 10^4 cells/cm^2 onto polyethylene membranes of transwell plates (Corning Costar, Cambridge, MA, USA). The medium was replaced on alternate days after seeding, and cell monolayers were used for the transport assay after approximately 21 days of culture. Trans-epithelial electrical resistance (TEER) values of the Caco-2 monolayers were measured with an EVOM epithelial tissue voltmeter (World Precision Instruments, Sarasota, FL, USA), and cells with TEER greater than 300 Ω were used for the experiments. Cell monolayers were first rinsed three times with transport buffer (Hank’s balanced salt solution supplemented with 10 mM HEPES) and preincubated for 30 min at 37 °C. To measure the bidirectional transport of the compound, a transport buffer containing 1 µM supinoxin was added to the respective donor compartments (the apical and basolateral sides for absorptive and secretory transport assays, respectively). Samples (200 µL) were collected at 30, 60, 90, and 120 min, and an identical volume of fresh buffer was replenished. The samples were then subjected to LC–MS/MS analysis and concentrations of the samples were determined. After the final sampling from both compartments, we measured the TEER of the monolayers to ensure no possible adverse effects induced by the experimental procedures and then estimated the apparent permeability coefficient of supinoxin from the compound’s time-dependent accumulation (dQ/dt) in the receiver compartments using the following equation: Papp = dQ/dt × 1/(A × C0)(1) where dQ/dt is the rate of transport, A is the surface area of the filter, and C0 is the initial concentration in the donor chamber.
(In general: Caco-2 monolayers are a common model of the intestinal barrier.)

A short description of data set [2]: Unbound fraction in microsomal incubation mixture (Rapid Equilibrium Dialysis). The class given is in vitro ADME. The following applies: rat, liver microsomes 0.5 mg protein/mL. As for the experimental part: To determine the unbound fraction of supinoxin in the plasma, a protein binding study was carried out using the Rapid Equilibrium Dialysis (RED) method. Following the manufacturer’s protocol (Thermo Fisher Scientific, San Jose, CA, USA), supinoxin was added to a plasma aliquot to produce a final concentration of 1 µg/mL. A plasma aliquot containing supinoxin (200 µL) and buffer (350 µL) was added to the sample chamber and the buffer chamber, respectively. When necessary, supinoxin was added to the microsomal incubation mixture (0.5 mg of protein per mL in potassium phosphate buffer) to produce final concentrations of 1 µM. The plate was covered and agitated on an orbital shaker at approximately 250 rpm at 37 °C. Aliquots (25 µL) of the plasma and buffer were collected at 4, 8, 18, and 24 h, and the samples were subjected to LC–MS/MS analysis. The fraction of supinoxin bound to plasma protein was estimated as follows:Percent bound (%) = [1 − (concentration in buffer/concentration in plasma)] × 100%(5)
On the technique in general: In equilibrium dialysis free small molecules cross a membrane that holds back macromolecules.

For `COc1cc(OC)cc(N2CCN(C(=O)Nc3nc4cc(F)ccc4nc3OC)CC2)c1` [supinoxin, 1-(3,5-Dimethoxyphenyl)-4-[(6-Fluoro-2-Methoxyquinoxalin-3-yl) Aminocarbonyl] Piperazine], the Papp A→B at 120 min, 1 µM was found to be 18.5 ± 2.4 ×10⁻⁶ cm/s in data set [1] (Caco-2, Caco-2 cell monolayers, supinoxin 1 µM, read-out: apical to basolateral apparent permeability coefficient) and 18.5 ×10⁻⁶ cm/s in data set [1] (Caco-2, PBPK input parameter, Determined, read-out: Caco-2 permeability). Moreover, in data set [1] (Caco-2 cell monolayers), the efflux ratio at 120 min, 1 µM was 1.24. Also, in data set [1] (Caco-2 cell monolayers, supinoxin 1 µM, read-out: basolateral to apical apparent permeability coefficient), the Papp B→A at 120 min, 1 µM was 22.6 ± 1.8 ×10⁻⁶ cm/s. Further, the fraction unbound at 18 h, 1 µM in data set [2] (liver microsomal incubation mixture, 18 h incubation) came out at 0.623 ± 0.016. Moreover, in data set [2] (4 h incubation), the fraction unbound at 4 h, 1 µM was 0.518 ± 0.025. For the same compound, the fraction unbound at 8 h, 1 µM in data set [2] (8 h incubation) came out at 0.57 ± 0.017. Besides, the fraction unbound at 24 h, 1 µM in data set [2] (24 h incubation) turned out to be 0.615 ± 0.046.

(Values after paper PMC7998731, “Pharmacokinetic Characterization of Supinoxin and Its Physiologically Based Pharmacokinetic Modeling in Rats” (Pharmaceutics, 2021).)
